Measurements published in patent US10544106B2, “Certain chemical entities, compositions, and methods” (NeuPharma, Inc., priority 2016, dated 2020).
pIC50: −log10 of the molar value.

Molecular target: BTK (Homo sapiens (Human), UniProt Q06187)
Assay: Z'-LYTE kinase inhibition assay against BTK
Format: biochemical
Conditions: compound at 100 nM; ATP concentration at Km
Summary of the method: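 Compounds were titrated over 10 points (3-fold steps, 1% DMSO) against BTK (1.04-10.4 ng) using Tyr 01 substrate at 2 μM and ATP at Km, pH 7.5 HEPES buffer with MgCl2 and EGTA. After one hour each of reaction and development at room temperature, fluorescence gave percent inhibition and IC50.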

Sequence of BTK (Q06187 whole entry): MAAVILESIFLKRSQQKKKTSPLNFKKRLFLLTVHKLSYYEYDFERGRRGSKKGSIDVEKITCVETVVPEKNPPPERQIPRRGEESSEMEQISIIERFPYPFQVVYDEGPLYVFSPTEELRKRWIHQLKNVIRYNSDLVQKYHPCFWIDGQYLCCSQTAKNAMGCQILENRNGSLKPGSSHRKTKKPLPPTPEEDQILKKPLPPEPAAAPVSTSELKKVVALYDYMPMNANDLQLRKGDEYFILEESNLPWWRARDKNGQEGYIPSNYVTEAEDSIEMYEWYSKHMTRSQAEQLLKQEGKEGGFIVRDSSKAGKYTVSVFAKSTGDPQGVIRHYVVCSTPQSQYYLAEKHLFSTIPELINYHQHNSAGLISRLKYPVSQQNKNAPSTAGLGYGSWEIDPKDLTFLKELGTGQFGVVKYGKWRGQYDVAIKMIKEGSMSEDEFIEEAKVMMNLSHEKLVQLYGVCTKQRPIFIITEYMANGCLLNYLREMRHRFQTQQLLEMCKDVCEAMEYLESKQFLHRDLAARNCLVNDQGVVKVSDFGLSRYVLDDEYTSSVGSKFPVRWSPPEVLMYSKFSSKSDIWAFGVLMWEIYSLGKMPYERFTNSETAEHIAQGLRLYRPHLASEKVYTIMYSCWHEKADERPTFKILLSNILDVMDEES

Row | SMILES | inhibition at 0.1 µM [%]
1 | C=CC(=O)Nc1cccc(-c2cc(-c3ccc(C(=O)Nc4ncccc4F)cc3)c(N)c3cncnc23)c1 [C211, 4-(8-(3-acrylamidophenyl)-5-aminoquinazolin-6-yl)-N-(3-fluoropyridin-2-yl)benzamide] | < 50
2 | C=CC(=O)N1CCC(c2nc(-c3ccc(Oc4ccccn4)c(OC)c3)n3c(N)nccc23)C1 (centres unmarked) [C212, 1-(3-(5-amino-3-(3-methoxy-4-(pyridin-2-yloxy)phenyl)imidazo[1,5-c]pyrimidin-1-yl)pyrrolidin-1-yl)prop-2-en-1-one] | > 50
3 | CC#CC(=O)N1CCC(c2nc(-c3ccc(Oc4ccccn4)c(OC)c3)n3c(N)nccc23)C1 (centres unmarked) [C213, 1-(3-(5-amino-3-(3-methoxy-4-(pyridin-2-yloxy)phenyl)imidazo[1,5-c]pyrimidin-1-yl)pyrrolidin-1-yl)but-2-yn-1-one] | > 50
4 | CC#CC(=O)N1CCC(c2nc(-c3ccc(Oc4cc(OC)ccn4)cc3)n3c(N)nccc23)C1 (centres unmarked) [C214, 1-(3-(5-amino-3-(4-((4-methoxypyridin-2-yl)oxy)phenyl)imidazo[1,5-c]pyrimidin-1-yl)pyrrolidin-1-yl)but-2-yn-1-one] | > 50
5 | C=CC(=O)N1CCC(c2cc(-c3ccc(C(=O)Nc4ncccc4F)cc3)c(N)c3cncnc23)C1 (centres unmarked) [C215, 4-(8-(1-acryloylpyrrolidin-3-yl)-5-amino-quinazolin-6-yl)-N-(3-fluoropyridin-2-yl)benzamide] | < 50
6 | C=CC(=O)N1CCC(c2nc(-c3ccc(Oc4cc(OC)ccn4)c(F)c3)n3c(N)nccc23)C1 (centres unmarked) [C216, 1-(3-(5-amino-3-(3-fluoro-4-((4-methoxy-pyridin-2-yl)oxy)phenyl)imidazo[1,5-c]pyrimidin-1-yl)pyrrolidin-1-yl)prop-2-en-1-one] | > 50
7 | C=CC(=O)Nc1cccc(-c2cc(-c3ccc(C(=O)Nc4ncccc4F)cc3Cl)c(N)c3cncnc23)c1 [C217, 4-(8-(3-acrylamidophenyl)-5-aminoquinazolin-6-yl)-3-chloro-N-(3-fluoropyridin-2-yl)benzamide] | > 50
8 | CC#CC(=O)N1CCC(c2nc(-c3ccc(Oc4ncccc4C(F)(F)F)cc3)n3c(N)nccc23)C1 (centres unmarked) [C219, 1-(3-(5-amino-3-(4-((3-(trifluoromethyl)pyridin-2-yl)oxy)phenyl)imidazo[1,5-c]pyrimidin-1-yl)pyrrolidin-1-yl)but-2-yn-1-one] | < 50
9 | CC#CC(=O)N1CCC(c2nc(-c3ccc(Oc4cc(C(F)(F)F)ccn4)c(OC)c3)n3c(N)nccc23)C1 (centres unmarked) [C222, 1-(3-(5-amino-3-(3-methoxy-4-((4-(trifluoro-methyl)pyridin-2-yl)oxy)phenyl)imidazo[1,5-c]pyrimidin-1-yl)pyrrolidin-1-yl)but-2-yn-1-one] | > 50
10 | C=CC(=O)N1CCC(c2nc(-c3ccc(Oc4ncccc4C#N)cc3)n3c(N)nccc23)C1 (centres unmarked) [C227, 2-(4-(1-(1-acryloylpyrrolidin-3-yl)-5-amino-imidazo[1,5-c]pyrimidin-3-yl)phenoxy)nicotinonitrile] | > 50

More lines, now with the values ahead:

Row | inhibition at 0.1 µM [%] | SMILES
11 | > 50 | CC#CC(=O)N1CCC(c2nc(-c3ccc(Oc4ccccn4)c(F)c3)n3c(N)nccc23)C1 (centres unmarked) [C209, 1-(3-(5-amino-3-(3-fluoro-4-(pyridin-2-yloxy)phenyl)imidazo[1,5-c]pyrimidin-1-yl)pyrrolidin-1-yl)but-2-yn-1-one]
12 | > 50 | C=CC(=O)N1CCC(c2nc(-c3ccc(Oc4ncccc4C(F)(F)F)cc3)n3c(N)nccc23)C1 (centres unmarked) [C218, 1-(3-(5-amino-3-(4-((3-(trifluoro-methyl)pyridin-2-yl)oxy)phenyl)imidazo[1,5-c]pyrimidin-1-yl)pyrrolidin-1-yl)prop-2-en-1-one]
13 | > 50 | C=CC(=O)Nc1cccc(-c2nc(-c3ccc(Oc4ncccc4C(F)(F)F)cc3)n3c(N)nccc23)c1 [C220, N-(3-(5-amino-3-(4-((3-(trifluoromethyl)pyridin-2-yl)oxy)phenyl)imidazo[1,5-c]pyrimidin-1-yl)phenyl)acrylamide]
14 | > 50 | C=CC(=O)N1CCC(c2nc(-c3ccc(Oc4cc(C(F)(F)F)ccn4)c(OC)c3)n3c(N)nccc23)C1 (centres unmarked) [C221, 1-(3-(5-amino-3-(3-methoxy-4-((4-(trifluoro-methyl)pyridin-2-yl)oxy)phenyl)imidazo[1,5-c]pyrimidin-1-yl)pyrrolidin-1-yl)prop-2-en-1-one]
15 | > 50 | C=CC(=O)N1CCC(c2nc(-c3ccc(Oc4ncccc4C(F)(F)F)c(F)c3)n3c(N)nccc23)C1 (centres unmarked) [C223, 1-(3-(5-amino-3-(3-fluoro-4-((3-(trifluoro-methyl)pyridin-2-yl)oxy)phenyl)imidazo[1,5-c]pyrimidin-1-yl)pyrrolidin-1-yl)prop-2-en-1-one]
16 | > 50 | C=CC(=O)N1CCC(c2nc(-c3ccc(Oc4ncccc4F)cc3)n3c(N)nccc23)C1 (centres unmarked) [C226, 1-(3-(5-amino-3-(4-((3-fluoropyridin-2-yl)oxy)phenyl)imidazo[1,5-c]pyrimidin-1-yl)pyrrolidin-1-yl)prop-2-en-1-one]

Same assay, conditions: series of concentrations; GraphPad Prism 5

Row | SMILES | pIC50
17 | C=CC(=O)N1CCC(c2nc(-c3ccc(Oc4ccccn4)c(OC)c3)n3c(N)nccc23)C1 (centres unmarked) [C212, 1-(3-(5-amino-3-(3-methoxy-4-(pyridin-2-yloxy)phenyl)imidazo[1,5-c]pyrimidin-1-yl)pyrrolidin-1-yl)prop-2-en-1-one] | > 7.00
18 | C=CC(=O)N1CCC(c2nc(-c3ccc(Oc4cc(OC)ccn4)c(F)c3)n3c(N)nccc23)C1 (centres unmarked) [C216, 1-(3-(5-amino-3-(3-fluoro-4-((4-methoxy-pyridin-2-yl)oxy)phenyl)imidazo[1,5-c]pyrimidin-1-yl)pyrrolidin-1-yl)prop-2-en-1-one] | > 7.00
19 | CC#CC(=O)N1CCC(c2nc(-c3ccc(Oc4ncccc4F)cc3)n3c(N)nccc23)C1 (centres unmarked) [C228, 1-(3-(5-amino-3-(4-((3-fluoropyridin-2-yl)oxy)phenyl)imidazo[1,5-c]pyrimidin-1-yl)pyrrolidin-1-yl)but-2-yn-1-one] | > 7.00
20 | CC#CC(=O)N1CCC(c2nc(-c3ccc(Oc4ncccc4C#N)cc3)n3c(N)nccc23)C1 (centres unmarked) [C229, 2-(4-(5-amino-1-(1-(but-2-ynoyl)pyrrolidin-3-yl)imidazo[1,5-c]pyrimidin-3-yl)phenoxy)nicotinonitrile] | > 7.00
21 | CC#CC(=O)N1CCC(c2nc(-c3ccc(C(=O)Nc4ccccn4)c(F)c3)n3c(N)nccc23)C1 (centres unmarked) [C231, 4-(5-amino-1-(1-(but-2-ynoyl)pyrrolidin-3-yl)imidazo[1,5-c]pyrimidin-3-yl)-2-fluoro-N-(pyridin-2-yl)benzamide] | > 7.00
22 | C=CC(=O)N1CCCC(c2nc(-c3ccc(Oc4ncccc4C#N)c(F)c3)n3c(N)nccc23)C1 (centres unmarked) [C234, 2-(4-(1-(1-acryloylpiperidin-3-yl)-5-amino-imidazo[1,5-c]pyrimidin-3-yl)-2-fluorophenoxy)nicotinonitrile] | > 7.00
23 | CC#CC(=O)N1CCC(c2nc(-c3ccc(C(=O)Nc4cc(C5CC5)ccn4)cc3)n3c(N)nccc23)C1 (centres unmarked) [C239, 4-(5-amino-1-(1-(but-2-ynoyl)pyrrolidin-3-yl)imidazo[1,5-c]pyrimidin-3-yl)-N-(4-cyclopropylpyridin-2-yl)benzamide] | > 7.00
24 | CC#CC(=O)N1CCC(c2nc(-c3ccc(C(=O)Nc4cc(OC)ccn4)cc3)n3c(N)nccc23)C1 (centres unmarked) [C241, 4-(5-amino-1-(1-(but-2-ynoyl)pyrrolidin-3-yl)imidazo[1,5-c]pyrimidin-3-yl)-N-(4-methoxypyridin-2-yl)benzamide] | > 7.00
25 | C=CC(=O)N1CCC(c2nc(-c3ccc(C(=O)Nc4cc(C(F)(F)F)ccn4)cc3)n3c(N)nccc23)C1 (centres unmarked) [C242, 4-(1-(1-acryloylpyrrolidin-3-yl)-5-amino-imidazo[1,5-c]pyrimidin-3-yl)-N-(4-(trifluoromethyl)pyridin-2-yl)benzamide] | > 7.00
26 | C=CC(=O)N1CCCC(c2nc(-c3ccc(Oc4ccccn4)cc3)n3c(N)nccc23)C1 (centres unmarked) [C243, 1-(3-(5-amino-3-(4-(pyridin-2-yloxy)phenyl)imidazo[1,5-c]pyrimidin-1-yl)piperidin-1-yl)prop-2-en-1-one] | > 7.00
27 | CC#CC(=O)N1CCCC(c2nc(-c3ccc(Oc4ccccn4)cc3)n3c(N)nccc23)C1 (centres unmarked) [C244, 1-(3-(5-amino-3-(4-(pyridin-2-yloxy)phenyl)imidazo[1,5-c]pyrimidin-1-yl)piperidin-1-yl)but-2-yn-1-one] | > 7.00

Other lines, results leading:

Row | pIC50 | SMILES
28 | > 7.00 | C=CC(=O)N1CCC(c2nc(-c3ccc(Oc4ncccc4C(F)(F)F)cc3)n3c(N)nccc23)C1 (centres unmarked) [C218, 1-(3-(5-amino-3-(4-((3-(trifluoro-methyl)pyridin-2-yl)oxy)phenyl)imidazo[1,5-c]pyrimidin-1-yl)pyrrolidin-1-yl)prop-2-en-1-one]
29 | > 7.00 | C=CC(=O)N1CCCC(c2nc(-c3ccc(Oc4ncccc4F)c(OC)c3)n3c(N)nccc23)C1 (centres unmarked) [C232, 1-(3-(5-amino-3-(4-((3-fluoropyridin-2-yl)oxy)-3-methoxyphenyl)imidazo[1,5-c]pyrimidin-1-yl)piperidin-1-yl)prop-2-en-1-one]
30 | > 7.00 | C=CC(=O)N1CCC(c2nc(-c3ccc(Oc4ncccc4F)c(OC)c3)n3c(N)nccc23)C1 (centres unmarked) [C233, 1-(3-(5-amino-3-(4-((3-fluoropyridin-2-yl)oxy)-3-methoxyphenyl)imidazo[1,5-c]pyrimidin-1-yl)pyrrolidin-1-yl)prop-2-en-1-one]
31 | > 7.00 | CC#CC(=O)N1CCC(c2nc(-c3ccc(C(=O)Nc4cc(C5CC5)ccn4)cc3)n3c(N)ncnc23)C1 (centres unmarked) [C237, 4-(4-amino-8-(1-(but-2-ynoyl)pyrrolidin-3-yl)imidazo[1,5-a][1,3,5]triazin-6-yl)-N-(4-cyclopropylpyridin-2-yl)benzamide]
32 | > 7.00 | CC#CC(=O)N1CCC(c2nc(-c3ccc(C(=O)Nc4cc(C5CC5)ccn4)c(F)c3)n3c(N)nccc23)C1 (centres unmarked) [C247, 4-(5-amino-1-(1-(but-2-ynoyl)pyrrolidin-3-yl)imidazo[1,5-c]pyrimidin-3-yl)-N-(4-cyclopropylpyridin-2-yl)-2-fluorobenzamide]
